Test results taken from PMC4792161, “A novel pyrazole derivative protects from ovariectomy-induced osteoporosis through the inhibition of NADPH oxidase” (Scientific Reports, 2016).
Marks after values point to notes of the source that are not given here.

Key:
[1] = Direct ROS (H2O2) scavenging in vitro; details: 1 mM NAC, 1 mM H2O2, control scavenger
Excerpt: Based on the notion that the differentiation of OCs is mediated by Nox1/2/4-dependent ROS generation, we have performed a high throughput enzyme inhibitor screening assay to identify chemical compounds having Nox1/2/4 inhibitory activity for the development of an anti-osteoporosis agent. Purified Drosophila membranes expressing human Nox1, Nox2, or Nox4 were used to monitor ROS production by determining the oxidation of lucigenin, evident as chemiluminescence, in the absence or presence of chemical compound[18]. A chemical library containing 31,000 compounds was screened to identify Nox inhibitors. […] (Fig. 1B, Supplementary Fig. S2). […] Moreover, we investigated whether Ewha-18278 can directly scavenge ROS in vitro.
Supplementary Figure S3. (A) Ewha-18278 compounds can not directly scavenge superoxide or other reactive species in vitro. ROS (H2O2) measured with lucigenin. Reaction mixtures contained 1 […]
Luminescence measured over 30 min at 37
°C with luminometor (Gloma X luminometor, Turner BioSystem). […]
the phagocytosis of zymosan. […]
incubated with FITC-zymosan particles, and internalized fluorescence was measured by flow cytometry. The data are presented as the MFI of internalized FITC. Data represent mean ± S.D. […]

[2] = system: bone density; design: method as in PMID 16754727; details: estrogen replacement; cited from earlier work
[3] = system: OVX-induced osteoporotic ddY mice; experiment: Tibia histopathology-histomorphometry in OVX mice; assay type: in vivo; details: 2.5 mg/kg oral once daily 28 days
[4] = system: OVX-induced osteoporotic ddY mice; experiment: Tibia weights (wet, dry, ash) in OVX mice; assay type: in vivo; details: 2.5 mg/kg oral once daily 28 days
Protocol: (§1) The right sides of femur and tibia were weighed and then dried at 120 °C for 8 hours. The dried bones were carbonized at 800 °C for 6 hours in a furnace (Daihan Scientific, Korea) to detect ash absolute weights, after measurement of BMD and failure load. To reduce the individual body weight differences, the relative weight (%) was calculated using body weight at sacrifice and absolute weight as [Relative bone weights = (Absolute bone weight/Body weight at sacrifice) ×100]. In addition, ashed bones were ground and dissolved in nitric acid. In diluted solution, Ca and P contents were calculated (mg/g bone) using an orthocresolphthalein complex and enzyme methods, respectively. The Ca/P ratio (%) was calculated as (Tibia Ca contents/Tibia P contents) ×100.
Supplementary Table S4. Tibia Weights in OVX Mice Values are expressed mean ± S.D. of eight mice Risedronate sodium was administered at 2.5mg/kg levels a p<0.01 as compared with sham control […]
material OVX = ovariectomy
Groups Tibia absolute weights (g) Tibia relative weights (% of body weight)Wet Dry Ash Wet Dry Ash

[5] = system: OVX-induced osteoporotic ddY mice; experiment: Femur weights (wet, dry, ash) in OVX mice; assay type: in vivo; details: 2.5 mg/kg oral once daily 28 days
Protocol: as §1

[6] = system: OVX-induced osteoporotic ddY mice; experiment: Femur histopathology-histomorphometry in OVX mice; assay type: in vivo; details: 2.5 mg/kg oral once daily 28 days
Protocol: Risedronate sodium (2.5 mg/kg) served as a reference compound. […] Histopathology and histomorphometrical analyses including trabecular bone volume (BV/TV), trabecular bone number (Tb.N), trabecular bone length (Tb.Le), trabecular bone thickness (Tb.Th), cortical bone thickness (Ct.Th), OC number (N.Oc), bone mineral density (BMD) and bone strength (failure load, FL) were conducted.
(§2) The study was reviewed and approved by the Institutional Animal Care and Use Committee (IACUC) of Center for Laboratory Animal Sciences, Ewha Industry-University Cooperation Foundation, Ewha Womans University. Experimental methods were carried out in accordance with the approved ethic guidelines in Ewha Industry-University Cooperation Foundation, Ewha Womans University. Beginning 4 weeks after OVX, the female ddY mice received 2.5, 5, 10, or 20 mg/kg of #18–278, 2.5 mg/kg of risedronate, or vehicle once daily for 28 days. The Changes in body weight, bone weight, bone mineral density (BMD), failure load (FL), bone calcium (Ca), inorganic phosphorus (P) contents, histology and histomorphology were monitored. Serum osteocalcin and bone specific alkaline phosphatase (bALP) were monitored in mice receiving Ewha-18278.
The left side of femur of each mouse was separated and fixed in 10% neutral buffered formalin and decalcified in a solution comprised of 24.4% formic acid and 0.5N sodium hydroxide for 5 days, with spent solution replaced with fresh solution each day. Each sample was embedded in paraffin, sectioned to a thickness of 3–4 μm and exposed to with Hematoxylin & Eosin (H&E) stain. Histomorphometry was conducted as for bone mass and structure with bone resorption in a uniform area of epiphyseal regions of femur (growth plate regions were excluded). Cortical bone thickness was measured in the mid-shaft region of the femur.

[7] = system: OVX rats; details: 2.5 mg/kg/day for 8 weeks; cited from earlier work
[8] = Body weight changes in OVX mice; assay type: in vivo, ddY mice; details: risedronate 2.5 mg/kg; Ewha-18278 2.5, 5, 10 and 20 mg/kg; 28 days
Protocol: as §2
R esi dronat e 2. 5mg/kg t reated mi ce […]
D ay after administration (d)
Supplementary Figure S7. Body weight changes in OVX mice. We selected eight mice per group showing more increases of body weights as compared with sham-operated mice and regarded as good OVX animals at four weeks after OVX surgery, consequently, significant increases of body weights were detected in all OVX groups as compared with sham control mice throughout 28 days of […]
mice, in the present study. Values are expressed mean ± S.D. of eight mice. Risedronate sodium was administered at 2.5mg/kg levels. […]

[9] = system: OVX-induced osteoporotic ddY mice; experiment: Bone strength (failure load, three-point bending test) in OVX mice; assay type: in vivo; details: oral once daily 28 days; risedronate 2.5 mg/kg

## CC(=O)N[C@@H](CS)C(=O)O [N-acetyl cysteine, reference compound]
[1]
  change in hydrogen peroxide concentration (ROS scavenging): decrease in hydrogen peroxide concentration

## O=C(c1ccc(OCCN2CCCCC2)cc1)c1c(-c2ccc(O)cc2)sc2cc(O)ccc12 [Raloxifene]
[2]
  increase of bone density: 3–4%

## O=P(O)(O)C(O)(Cc1cccnc1)P(=O)(O)O [Risedronate, Risedronate sodium, reference compound]
[3]
  BV/TV (trabecular bone volume): 35.71 ± 5.63 ^c %
  Ct.Th (cortical bone thickness): 113.81 ± 14.45 ^a μm
  N.OC/BS (osteoclast cell number, N/epiphyseal): 19.38 ± 3.20 ^ac numbers
  Tb.Le (trabecular bone length): 0.76 ± 0.12 ^ac mm
  Tb.N (trabecular bone number, N/epiphyseal): 19.25 ± 1.67 ^bc numbers
  Tb.Th (trabecular bone thickness): 43.52 ± 8.73 ^ac μm
[4]
  Tibia absolute weights, Ash: 0.031 g
  Tibia absolute weights, Dry: 0.050 g
  Tibia absolute weights, Wet: 0.071 g
  Tibia relative weights, Ash: 0.085 % of body weight
  Tibia relative weights, Dry: 0.137 % of body weight
  Tibia relative weights, Wet: 0.196 % of body weight
[5]
  Femur absolute weights, Ash: 0.037 g
  Femur absolute weights, Dry: 0.066 g
  Femur absolute weights, Wet: 0.096 g
  Femur relative weights, Ash: 0.102 % of body weight
  Femur relative weights, Dry: 0.181 % of body weight
  Femur relative weights, Wet: 0.263 % of body weight
[6]
  BV/TV (trabecular bone volume): 38.08 ± 7.20 ^c %
  Ct.Th (cortical bone thickness): 128.36 ± 15.57 ^a μm
  N.OC/BS (osteoclast cell number, N/epiphyseal): 19.00 ± 2.93 ^eg numbers
  Tb.Le (trabecular bone length): 1.04 ± 0.12 ^ac mm
  Tb.N (trabecular bone number, N/epiphyseal): 24.50 ± 4.00 ^eg numbers
  Tb.Th (trabecular bone thickness): 47.25 ± 4.73 ^ad μm
[7]
  microstructural and biomechanical features of bone: maintains microstructural and biomechanical features of bone
[8]
  body weights as compared with OVX control mice: no meaningful changes
[9]
  bone strength (FL) of femur and tibia compared to control OVX: did not show any favorable effects
